Reference: publication PMC11510897 (2024)

System: A5-S3G (DNA, aptamer) TCGGATAAAACCGGGCGGCGTTACACTAGGCG
Assay: biolayer interferometry
Conditions: 150 mM NaCl, 2 mM MgCl2; 50 mM Tris-HCl, pH 7.5; tested at 1000 nM in aptasensor

Q: With `C=C1[C@@H](O)[C@@H]2O[C@]3(CC[C@H](/C=C/[C@@H](C)[C@@H]4CC(C)=C[C@@]5(O[C@H](C[C@@](C)(O)C(=O)O)CC[C@H]5O)O4)O3)CC[C@H]2O[C@@H]1[C@@H](O)C[C@H](C)[C@H]1O[C@@]2(CCCCO2)CC[C@H]1C` as the compound, how does the binding read?
A: no
